The values below come from patent US20220404336A1, “COMPOSITIONS, METHODS AND USES FOR FREE FATTY ACID SCREENING OF CELLS AT SCALE” (priority 2019, published 2022).

Entries after “also recorded” stand apart in the source; their conditions may differ. Like-named read-outs stand apart in the source and are kept apart here.

One series relates to NF-κB p65/RELA. The series is described as follows: RELA nuclear translocation, immunofluorescence. It counts as cell-based, mouse. To be noted: MIN6 cells, 18 hours, BSA negative control. As to the method:
Cells grown on 384 well CellCarrier Ultra microplates (#6057308, PerkinElmer) were fixed 10 min in PBS containing 4% PFA (Electron Microscopy Sciences), permeabilized 15 min in 0.5% Triton X-100 (Sigma-Aldrich), blocked for 1 h in blocking reagent (100 mM Tris HCL pH8; 150 mM NaCL; 5 g/L Blocking Reagent (#11096176001, Roche)) and treated for 1.5 h with primary antibody diluted in blocking reagent (NF-κB p65/RELA, Rabbit monoclonal antibody, 1:200, (#8242, Cell Signaling Technology). Cells were washed three times in PBS and incubated for 0.5 h with fluorescent-labeled secondary antibody in blocking solution (1:500, Alexa Fluor 568 Goat anti-Rabbit IgG, (#A11036, Thermo Fisher Scientific)). Cytoplasmic actin filaments were stained with Phalloidin conjugated with Alexa 647 (1:40, #A22287, Thermo Fisher Scientific) and nuclei were counterstained with Hoechst (1:2000, #H3570, Thermo Fisher Scientific). Cells were washed three times in PBS and imaged using the Opera Phenix High Content Screening System, #HH14000000, Perkin Elmer). A minimum of nine fields was acquired per well using 20× water immersion objectives in a confocal mode. Image analysis was performed using the Harmony software (PerkinElmer). Cell nuclei were first identified using Hoechst staining and nuclear region was defined for each cell. Phalloidin staining was then used to detect and define the cytoplasmic region of the cell. RELA fluorescent intensity was measured separately in the nuclear and cytoplasmic regions and a threshold for a nuclear translocation was defined using negative (BSA) and positive (TNFα) controls. For each well the fraction of cells identified for RELA nuclear translocation was calculated.

The test system of a further series is ATF4 and CHOP. The series is described as follows: Western blot, induction of the UPR. To be noted: MIN6 cells, BSA negative control. The series is classed as cell-based, mouse. As for the experimental part: MIN6 cells were lysed (#9803, Cell Signaling Technology) in the presence of protease inhibitors (#05892791001, Roche) and phosphatase inhibitors (#04906837001, Roche). Protein concentrations were quantified with the Pierce BCA Protein Assay Kit (#23225, Thermo Fisher Scientific). NuPAGE LDS sample buffer (#NP0008, Thermo Fisher Scientific) was added to normalized protein lysates together with NuPAGE reducing agent (#NP0004, Thermo Scientific). Lysates were heated to 95° C. for 5 min prior to SDS-PAGE gel electrophoresis (NuPAGE MES SDS running buffer, Thermo Fisher Scientific, #NP0002). Proteins were transferred to a nitrocellulose membrane (#1704158, BioRad) with the Trans-Blot® Turbo™ Blotting System (#1704155, BioRad) according to the manufacturer's protocol. Membranes were blocked in 5% Nonfat Dry Milk (#9999S, Cell Signaling Technology) in PBS with 0.1% Tween® 20 (PBS-T). Primary antibodies were incubated at 4° C. overnight, secondary antibodies were incubated at room temperature for 1 h. Super Signal West Dura (#34076, Thermo Fisher Scientific) or Super Signal West Pico (#34087, Thermo Fisher Scientific) were used to visualize immunoreactive bands imaged by G:BOX Chemi XT4:BOX-CHEMI-XT4, Syngene). Primary Antibodies used in this study: CPT1A: (Abcam #ab128568), ATF4: (CST #11815), CHOP: (CST #2895).
(In general: In western blotting, separated proteins are transferred to a membrane and probed.)

Series [1] deals with MIN6 cells. As to the kind of experiment: ER calcium levels (Fluo4, thapsigargin, FLIPR Tetra). The series is classed as cell-based, mouse. The following applies: FFA treatment 24 h, relative to negative control (BSA). As for the experimental part:
MIN6 cells were plated in 384 well plates (Aurora, Black 384 SQ Well 188 micron Film, #1022-10110) and treated with the FFA library for 24 h prior to readout. Cells were carefully washed three times with HBSS (with calcium, Thermo Fisher Scientific, #14025076) using an automated simultaneous pipettor (analytikjena CyBio® Well vario) and incubated with the fluorescent calcium indicator Fluo4 (2 μM, Life Technologies, #F14202) in DMEM without additions for 1 h at room temperature. Then, cells were washed again in HBSS (with calcium) and incubated for another 30 min at room temperature in DMEM without additions. Just before the readout, cells were washed in final calcium free assay buffer solution (140 mM NaCl, 5 mM Kcl, 10 mM HEPES, 2 mM MgCl2, 10 mM EGTA, 10 mM Glucose) and left with 25 ul assay volume per well. Assay plates were immediately transferred to the FLIPR Tetra® High-Throughput Cellular Screening System. The plate was recorded with a frequency of 1 Hz for 10 min. Baseline was recorded for 30 s before the automated liquid transfer system of the FLIPR added the SERCA inhibitor Thapsigargin (final concentration 10 μM) in calcium free assay buffer. The resulting passive efflux of calcium from the ER induced a transient cytosolic fluorescence signal and the peak amplitudes were used to indirectly quantify ER calcium levels (See Extended Data FIG. 3d). The resulting trajectories were corrected for a pipetting artifact and baseline normalized. Log 2 Fold changes were calculated according to plate location specific negative (BSA) controls. The exclusion of one outlier/FFA/plate (n=5) based on a 3 sigma cutoff was allowed. P-values were calculated with Student's t-test (two-sided) and corrected for multiple testing (Benjamin & Hochberg).

Series [2] has as its system human pancreatic islet cells. As to the kind of experiment: Toxicity against human pancreatic islet cells (C-peptide positive cell count). The series is classed as cell-based. As for the experimental part: (§1) Human pancreatic islets from a deceased donor (Islet Research Resource ID: SAMN15400953) were purchased from the Integrated Islet Distribution program, dissociated, and cultured as described previously ([…] and Wagner. Curr. Protocols in Chem. Biol. 6: 157-168). In brief, 384 well plates (Perkin Elmer, CellCarrier Ultra, #6057300) were coated in ECM 2-3 days before the start of the experiment. HTB-9 cells (ATTC, 5637) were seeded at 10K/well into the 384 well plates and grown to confluence. All culture media was aspirated and 50 ul/well of 20 mM NH4OH in PBS (Sigma) was added. The plates were incubated at 37 C for 6 minutes, after which the NH4OH was pipetted up and down 4-5 times before being aspirated. The wells were then filled with 50 ul/well PBS until seeding with human islets. Human islets were pelleted and dissociated with StemPro Accutase (Life Technologies, A11105-01) at 37 C for 20-25 minutes followed by pipetting to mix 5-7 times. The dissociated islets were resuspended in CMRL 1066 medium (CellGro, cat. no. 15-110-CV) supplemented with 10% FBS, 1× L-glutamine, and 1× penicillin/streptomycin, filtered through a nylon mesh to remove large cell aggregates, and seeded at 10K/well density in the coated 384w plate. These islets were maintained in full CMRL media at 37 C, 95% humidity, and 5% CO2 with media changes every third day. For testing of free fatty acids for toxicity against human pancreatic islet cells (FIG. 8), C2, C3, and C4 free fatty acids were incubated with human pancreatic islet cells at concentrations of 250 μM, 500 μM, and 1 mM for 120 hours with one media change at 72 hours. The islets were subsequently fixed with 3% paraformaldehyde for 20 minutes, permeabilized with 0.2% TritonX-100 for another 20 minutes, and blocked for 3 hours at RT in 2% BSA in PBS (SeraCare, AP-45100-80). The islets were stained with C-peptide antibody (Developmental studies hybridoma bank at University of Iowa) at 1:100 in 2% BSA/PBS overnight rocking at 4 C, washed with PBS three times followed by once with 1% BSA/PBS, and then incubated with 568 Goat anti-rat (Life technologies, A11077) at 1:1000 and Hoechst (Thermo Fisher Scientific) at 1:1000 for one hour at RT. These islets were then imaged with the Operetta CLS High Content Screening System (#HH16000000, Perkin Elmer). The number of C-peptide positive cells in each well was quantified using Harmony software (PerkinElmer) and used as a proxy for cell viability.

Assay in series [3]: as above
The following applies: female, dissociated human pancreatic islet cells; human islet cells, 120 hours; relative to the C3 and tested C4 free fatty acids; read-out: decrease of human pancreatic cell viability. The series is classed as cell-based. As for the experimental part: as §1

Series [4] concerns MIN6 cells. It counts as cell-based. As for the experimental part: For high throughput cell viability assay, cells were seeded in 384 well plates (Perkin Elmer, CellCarrier Ultra, #6057300) and treated for 24, 48 and 72 h with the FFA library. Just before readout, cell nuclei were stained with Hoechst (Thermo Fisher Scientific) for 1 h at 37° C. and imaged with the Opera Phenix High Content Screening System (#HH14000000, Perkin Elmer). Number of counted nuclei was determined with the image analysis software Harmony (PerkinElmer) and used as a proxy for cell viability. For low throughput validation experiments, cells were treated for 48 h with representative FFAs in CellCarrier-384 Ultra Microplates. Caspase 3/7 (Thermo Fisher Scientific, #C10423) activation and propidium iodide (Thermo Fisher Scientific, #P1304MP) staining were used to calculate the fraction of apoptotic cells and dead cells, respectively. Single cells were identified and counted after staining their nuclei with Hoechst. Fluorescence intensities were then measured and the threshold for Caspase 3/7 and propidium iodide positive staining was determined manually. Cell viability was calculated as the fraction of cells that were neither Caspase 3/7 nor propidium iodide positive.

[5] abbreviates: MIN6 cells, representative FFAs, 48 h.

Regarding `CCCCCCCCCCCCCCCC(=O)O` [PA, Hexadecanoic acid], in the series on NF-κB p65/RELA, the “nuclear translocation of RELA (p65)” value was “translocated to the nucleus”. Moreover, the “induction of the UPR (ATF4 and CHOP protein abundance)” value (“induction of the UPR” below) with ATF4 and CHOP is “upregulation of ATF4 and CHOP protein abundance; also recorded: inducing ATF4 and CHOP”. Also, the “ER Ca^2+ levels (peak amplitude after thapsigargin 10 μM)” value (shortened to “ER Ca^2+ levels”) in the series with MIN6 cells [1] is “significant reduction of ER Ca^2+ levels”.
On to `CCCCCCCC/C=C\CCCCCCCCCCCCCC(=O)O` [15Z-tetracosenoic acid, 15(Z)-Tetracosenoic acid], for which the “decrease of human pancreatic cell viability” value in series [2] is listed as “more than 50%”.
Still for that read-out and setting: the result for `CCCCCCCC/C=C\CCCCCCCCCCCCC(=O)O` [14Z-tricosenoic acid, 14(Z)-Tricosenoic acid] reads “more than 50%”.
For `CCCCCCCC/C=C\CCCCCCCCCCCC(=O)O` [EA, 13(Z)-Docosenoic acid], the “nuclear translocation of RELA (p65)” value in the series with NF-κB p65/RELA is recorded as “translocated to the nucleus; also recorded: Complete translocation of RELA from the cytosol to the nucleus”. The “induction of the UPR” value in the series with ATF4 and CHOP is “upregulation of ATF4 and CHOP protein abundance; also recorded: inducing ATF4 and CHOP”. Besides, the “human pancreatic cell viability” value in series [2] (human islet cells, 250 μM, 500 μM, 1 mM, 120 hours, relative to C3 FFAs 9Z-octadecenoic acid, 6Z-octadecenoic acid and C4 FFA 10Z-nonadecenoic acid) is “decreased human pancreatic cell viability”. For the same molecule, in series [3], the cytotoxicity at 120 h is > 50%. The “apoptosis (caspase activity) and cell death (propidium iodide positive nuclei); cell viability” value (“apoptosis” below) in the series with MIN6 cells [4] (setting [5]) was “consistently induced apoptosis and cell death; also recorded: reduced cell viability”. Moreover, the “ER Ca^2+ levels” value with MIN6 cells [1] was “significant reduction of ER Ca^2+ levels”.
In the case of `CCCCC/C=C\C/C=C\C/C=C\CCCCC(=O)O` [GLA, gamma-linoleic acid], the “induction of the UPR” value with ATF4 and CHOP is on record as “None”. Also, the “apoptosis” value in the series on MIN6 cells [4] (setting [5]) is “trended towards decreased viability”. In addition, the “ER Ca^2+ levels” value in the series on MIN6 cells [1] is listed as “increased”.
In the case of `CCCCC/C=C\C/C=C\C/C=C\C/C=C\CCCC(=O)O` [AA, 5(Z),8(Z),11(Z),14(Z)-Eicosatetraenoic Acid], in the series on ATF4 and CHOP, the “induction of the UPR” value is “None”. Besides, the “apoptosis” value in the series on MIN6 cells [4] was “trended towards decreased viability”. The “ER Ca^2+ levels” value in the series on MIN6 cells [1] is on record as “increased”.
With `CCCCCCCCCCC/C=C\CCCCC(=O)O` [PSA, petroselenic acid], in the series with NF-κB p65/RELA, the “nuclear translocation of RELA (p65)” value was “moderate RELA translocation to the nucleus”. Also, in the series with ATF4 and CHOP, the “induction of the UPR” value was “None”. Also, the “apoptosis” value with MIN6 cells [4] (setting [5]) is listed as “not associated with changes in cell viability”. Moreover, the “ER Ca^2+ levels” value in the series on MIN6 cells [1] is “near-baseline”.
On to `CCCCCCCC/C=C\CCCCCCCC(=O)O` [OA, 9(Z)-Octadecenoic acid], for which the “induction of the UPR” value in the series with ATF4 and CHOP is “None”. In addition, the “apoptosis” value with MIN6 cells [4] is recorded as “not associated with changes in cell viability”. Besides, the “ER Ca^2+ levels” value in the series with MIN6 cells [1] is reported as “near-baseline”.
